For orientation: EC50 means the midpoint of the concentration-response curve. What is called IC50 is the concentration at which inhibition is half-maximal.

Consider four compounds from ChEMBL document CHEMBL4421717, “Antagonists and agonists of bitter taste receptors and uses thereof” (2012).

The target in assay [1] is T1, Taste receptor type 2 member 46 (Homo sapiens, UniProt P59540).
T1 sequence (P59540 whole entry): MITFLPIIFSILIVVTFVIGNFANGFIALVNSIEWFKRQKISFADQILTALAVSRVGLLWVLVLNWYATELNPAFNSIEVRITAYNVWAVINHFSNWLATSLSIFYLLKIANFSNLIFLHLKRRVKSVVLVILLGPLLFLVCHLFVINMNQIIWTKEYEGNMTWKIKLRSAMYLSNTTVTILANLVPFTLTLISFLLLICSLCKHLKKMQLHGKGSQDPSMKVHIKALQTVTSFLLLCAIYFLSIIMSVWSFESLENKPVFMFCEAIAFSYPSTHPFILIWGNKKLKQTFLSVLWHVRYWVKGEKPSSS
Put plainly: Activity at recombinant human N-terminal rat ST3 receptor-fused TAS2R46 expressed in HEK293T cells co-expressing Galpha16gust44 assessed as activation of 3 uM strychnine-induced intracellular calcium level by FLIPR assay. It is filed as functional, cell-based. For orientation: Calcium assays in cells follow changes in intracellular calcium, usually with a dye or a luminescent sensor.

In assay [2] the target is T1, Taste receptor type 2 member 46. Put plainly: Antagonist activity at recombinant human N-terminal rat ST3 receptor-fused TAS2R46 expressed in HEK293T cells co-expressing Galpha16gust44 assessed as inhibition of 3 uM strychnine-induced intracellular calcium level by FLIPR assay. It is filed as functional, cell-based.

As for `C=C1C(=O)O[C@@H]2/C=C(\C)CC/C=C(\C)CCC12` (some centres undefined), the EC50 in assay [1] amounted to 8.6 µM.

In the case of `C/C1=C\[C@H]2OC(=O)[C@@H](C)C2CC/C(C)=C/CC1` (some centres undefined), the concentration giving a half-maximal response (EC50) in assay [1] came out at 8.3 µM.

Turning to `C/C1=C\CC(=O)/C(C)=C/[C@H]2OC(=O)[C@@H](C)C2CC1` (some centres undefined), the concentration for half-maximal inhibition (IC50) in assay [2] was found to be 97.8 µM.

For the compound `CC(=O)O[C@H]1C/C=C(\C)CCC2[C@H](C)C(=O)O[C@@H]2/C=C/1C` (some centres undefined), the EC50 in assay [1] came out at 1.1 µM.
